Measurements from ChEMBL document CHEMBL3351292, “Structure-Based Design and Synthesis of Potent Cyclic Peptides Inhibiting the YAP-TEAD Protein-Protein Interaction” (ACS Med Chem Lett, 2014).
Where a SMILES comes first, the peptide text is derived from it.

These molecules were tested against Transcriptional coactivator YAP1/Transcriptional enhancer factor TEF-1 (Homo sapiens, UniProt P28347) (assay: Inhibition of YAP/ GST-TEAD1 (unknown origin) interaction by surface plasmon resonance assay).
Format: protein assay

Transcriptional coactivator YAP1/Transcriptional enhancer factor TEF-1, sequence (P46937 whole entry): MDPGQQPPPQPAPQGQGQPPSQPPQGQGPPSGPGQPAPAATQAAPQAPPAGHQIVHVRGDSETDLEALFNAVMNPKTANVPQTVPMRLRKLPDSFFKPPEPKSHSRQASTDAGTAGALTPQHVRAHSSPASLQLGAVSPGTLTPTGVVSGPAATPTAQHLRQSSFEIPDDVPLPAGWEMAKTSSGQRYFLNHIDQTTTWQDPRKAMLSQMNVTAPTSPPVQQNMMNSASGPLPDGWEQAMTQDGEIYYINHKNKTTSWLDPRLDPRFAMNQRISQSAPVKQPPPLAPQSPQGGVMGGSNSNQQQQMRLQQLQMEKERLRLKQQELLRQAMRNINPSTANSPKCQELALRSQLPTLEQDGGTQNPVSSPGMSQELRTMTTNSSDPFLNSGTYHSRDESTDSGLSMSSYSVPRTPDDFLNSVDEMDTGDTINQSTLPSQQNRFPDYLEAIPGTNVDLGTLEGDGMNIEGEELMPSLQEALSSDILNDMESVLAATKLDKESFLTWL
Transcriptional coactivator YAP1/Transcriptional enhancer factor TEF-1, sequence (P28347 whole entry): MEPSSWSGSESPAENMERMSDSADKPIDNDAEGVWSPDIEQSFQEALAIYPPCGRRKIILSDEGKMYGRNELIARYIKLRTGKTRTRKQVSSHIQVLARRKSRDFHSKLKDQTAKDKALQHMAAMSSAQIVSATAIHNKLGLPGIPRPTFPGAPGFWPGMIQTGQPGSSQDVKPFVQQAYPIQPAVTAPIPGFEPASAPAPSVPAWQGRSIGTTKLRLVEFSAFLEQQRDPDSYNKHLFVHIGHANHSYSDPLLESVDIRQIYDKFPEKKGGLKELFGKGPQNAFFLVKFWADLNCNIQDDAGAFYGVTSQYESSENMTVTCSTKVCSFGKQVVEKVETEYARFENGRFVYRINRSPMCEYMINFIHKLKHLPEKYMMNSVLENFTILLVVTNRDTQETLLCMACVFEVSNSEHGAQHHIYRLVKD

Row | IC50 [nM] | SMILES
1 | 370 | CCCCCC[C@@H]1NC(=O)[C@H](CCCCN)NC(=O)[C@H](CCCNC(=N)N)NC(=O)[C@H](CC(C)C)NC(=O)[C@@H](NC(=O)[C@H](CCSC)NC(=O)[C@@H]2CCCN2C(=O)[C@@H](NC(C)=O)C(C)C)CCSSC[C@@H](C(=O)N[C@@H](CCCCN)C(=O)N2CCC[C@H]2C(=O)N2CCC[C@H]2C(=O)N[C@@H](CCC(=O)O)C(N)=O)NC(=O)[C@H](Cc2ccccc2)NC(=O)[C@H](CO)NC(=O)[C@H](C)NC(=O)[C@@H]2CCCN2C1=O
2 | 620 | CSCC[C@H](NC(=O)[C@@H]1CCCN1C(=O)[C@@H](NC(C)=O)C(C)C)C(=O)N[C@H]1CCSSC[C@@H](C(=O)N[C@@H](CCCCN)C(=O)N2CCC[C@H]2C(=O)N2CCC[C@H]2C(=O)N[C@@H](CCC(=O)O)C(N)=O)NC(=O)[C@H](Cc2ccccc2)NC(=O)[C@H](CO)NC(=O)[C@H](C)NC(=O)[C@@H]2CCCN2C(=O)[C@H](CCC(C)C)NC(=O)[C@H](CCCCN)NC(=O)[C@H](CCCNC(=N)N)NC(=O)[C@H](CC(C)C)NC1=O
3 | 310 | CSCC[C@H](NC(=O)[C@@H]1CCCN1C(=O)[C@@H](NC(C)=O)C(C)C)C(=O)N[C@H]1CCSSC[C@@H](C(=O)N[C@@H](CCCCN)C(=O)N2CCC[C@H]2C(=O)N2CCC[C@H]2C(=O)N[C@@H](CCC(=O)O)C(N)=O)NC(=O)[C@H](Cc2ccccc2)NC(=O)[C@H](CO)NC(=O)[C@H](C)NC(=O)[C@@H]2CCCN2C(=O)[C@H](CCCC(C)C)NC(=O)[C@H](CCCCN)NC(=O)[C@H](CCCNC(=N)N)NC(=O)[C@H](CC(C)C)NC1=O
4 | 340 | CCCC[C@H](NC(=O)[C@@H]1CCCN1C(=O)[C@@H](NC(C)=O)C(C)C)C(=O)N[C@H]1CCSSC[C@@H](C(=O)N[C@@H](CCCCN)C(=O)N2CCC[C@H]2C(=O)N2CCC[C@H]2C(=O)N[C@@H](CCC(=O)O)C(N)=O)NC(=O)[C@H](Cc2ccccc2)NC(=O)[C@H](CO)NC(=O)[C@H](C)NC(=O)[C@@H]2CCCN2C(=O)[C@H](CCCC)NC(=O)[C@H](CCCCN)NC(=O)[C@H](CCCNC(=N)N)NC(=O)[C@H](CC(C)C)NC1=O
5 | 41 | CCCCC[C@H](NC(=O)[C@@H]1CCCN1C(=O)[C@@H](NC(C)=O)C(C)C)C(=O)N[C@H]1CCSSC[C@@H](C(=O)N[C@@H](CCCCN)C(=O)N2CCC[C@H]2C(=O)N2CCC[C@H]2C(=O)N[C@@H](CCC(=O)O)C(N)=O)NC(=O)[C@H](Cc2ccccc2)NC(=O)[C@H](CO)NC(=O)[C@H](C)NC(=O)[C@@H]2CCCN2C(=O)[C@H](CCCC)NC(=O)[C@H](CCCCN)NC(=O)[C@H](CCCNC(=N)N)NC(=O)[C@H](CC(C)C)NC1=O
6 | 350 | CCCC[C@@H]1NC(=O)[C@H](CCCCN)NC(=O)[C@H](CCCNC(=N)N)NC(=O)[C@H](CC(C)C)NC(=O)[C@@H](NC(=O)[C@H](Cc2ccccc2)NC(=O)[C@@H]2CCCN2C(=O)[C@@H](NC(C)=O)C(C)C)CCSSC[C@@H](C(=O)N[C@@H](CCCCN)C(=O)N2CCC[C@H]2C(=O)N2CCC[C@H]2C(=O)N[C@@H](CCC(=O)O)C(N)=O)NC(=O)[C@H](Cc2ccccc2)NC(=O)[C@H](CO)NC(=O)[C@H](C)NC(=O)[C@@H]2CCCN2C1=O
7 | 380 | CCCC[C@@H]1NC(=O)[C@H](CCCCN)NC(=O)[C@H](CCCNC(=N)N)NC(=O)[C@H](CC(C)C)NC(=O)[C@@H](NC(=O)[C@H](Cc2ccccc2Cl)NC(=O)[C@@H]2CCCN2C(=O)[C@@H](NC(C)=O)C(C)C)CCSSC[C@@H](C(=O)N[C@@H](CCCCN)C(=O)N2CCC[C@H]2C(=O)N2CCC[C@H]2C(=O)N[C@@H](CCC(=O)O)C(N)=O)NC(=O)[C@H](Cc2ccccc2)NC(=O)[C@H](CO)NC(=O)[C@H](C)NC(=O)[C@@H]2CCCN2C1=O
8 | 530 | CCCC[C@@H]1NC(=O)[C@H](CCCCN)NC(=O)[C@H](CCCNC(=N)N)NC(=O)[C@H](CC(C)C)NC(=O)[C@@H](NC(=O)[C@H](Cc2ccc(Cl)cc2)NC(=O)[C@@H]2CCCN2C(=O)[C@@H](NC(C)=O)C(C)C)CCSSC[C@@H](C(=O)N[C@@H](CCCCN)C(=O)N2CCC[C@H]2C(=O)N2CCC[C@H]2C(=O)N[C@@H](CCC(=O)O)C(N)=O)NC(=O)[C@H](Cc2ccccc2)NC(=O)[C@H](CO)NC(=O)[C@H](C)NC(=O)[C@@H]2CCCN2C1=O
9 | 75 | CCCC[C@@H]1NC(=O)[C@H](CCCCN)NC(=O)[C@H](CCCNC(=N)N)NC(=O)[C@H](CC(C)C)NC(=O)[C@@H](NC(=O)[C@H](CCSC)NC(=O)[C@@H]2CCCN2C(=O)[C@@H](NC(C)=O)C(C)C)CCSSC[C@@H](C(=O)N[C@@H](CCCCN)C(=O)N2CCC[C@H]2C(=O)N2CCC[C@H]2C(=O)N[C@@H](CCC(=O)O)C(N)=O)NC(=O)[C@H](Cc2ccc(F)cc2)NC(=O)[C@H](CO)NC(=O)[C@H](C)NC(=O)[C@@H]2CCCN2C1=O

Each molecule was assayed against Transcriptional coactivator YAP1/Transcriptional enhancer factor TEF-1 (Homo sapiens) (UniProt P46937+P28347) (assay: Inhibition of YAP/ GST-TEAD1 (unknown origin) interaction at 50 uM by surface plasmon resonance assay).
Transcriptional coactivator YAP1/Transcriptional enhancer factor TEF-1 (Homo sapiens), sequence (P28347 whole entry, looked up): as the sequence (P28347 whole entry) above
Transcriptional coactivator YAP1/Transcriptional enhancer factor TEF-1 (Homo sapiens), sequence (P46937 whole entry, looked up): as the sequence (P46937 whole entry) above
Format: protein assay

Row | SMILES | inhibition [%]
10 | CSCC[C@H](NC(=O)[C@@H]1CCCN1C(=O)[C@@H](NC(=O)[C@@H](NC(=O)[C@H](CCC(N)=O)NC(=O)[C@@H]1CCCN1C(C)=O)[C@@H](C)O)C(C)C)C(=O)N[C@@H](CCCNC(=N)N)C(=O)N[C@@H](CC(C)C)C(=O)N[C@@H](CCCNC(=N)N)C(=O)N[C@@H](CCCCN)C(=O)N[C@@H](CC(C)C)C(=O)N1CCC[C@H]1C(=O)N[C@@H](CC(=O)O)C(=O)N[C@@H](CO)C(=O)N[C@@H](Cc1ccccc1)C(N)=O (Ac-PQTVPMRLRKLPDSF-NH2) | 5.4
11 | CSCC[C@H](NC(=O)[C@@H]1CCCN1C(=O)[C@@H](NC(=O)[C@@H](NC(=O)[C@H](CCC(N)=O)NC(=O)[C@@H]1CCCN1C(C)=O)[C@@H](C)O)C(C)C)C(=O)N[C@@H](CCCNC(=N)N)C(=O)N[C@@H](CC(C)C)C(=O)N[C@@H](CCCNC(=N)N)C(=O)N[C@@H](CCCCN)C(=O)N[C@@H](CC(C)C)C(=O)N1CCC[C@H]1C(=O)N[C@@H](CC(=O)O)C(=O)N[C@@H](CO)C(=O)N[C@@H](Cc1ccccc1)C(=O)N[C@@H](Cc1ccccc1)C(N)=O (Ac-PQTVPMRLRKLPDSFF-NH2) | 13
12 | CSCC[C@H](NC(=O)[C@@H]1CCCN1C(=O)[C@@H](NC(=O)[C@@H](NC(=O)[C@H](CCC(N)=O)NC(=O)[C@@H]1CCCN1C(C)=O)[C@@H](C)O)C(C)C)C(=O)N[C@@H](CCCNC(=N)N)C(=O)N[C@@H](CC(C)C)C(=O)N[C@@H](CCCNC(=N)N)C(=O)N[C@@H](CCCCN)C(=O)N[C@@H](CC(C)C)C(=O)N1CCC[C@H]1C(=O)N[C@@H](CC(=O)O)C(=O)N[C@@H](CO)C(=O)N[C@@H](Cc1ccccc1)C(=O)N[C@@H](Cc1ccccc1)C(=O)N[C@@H](C)C(=O)N1CCC[C@H]1C(=O)N1CCC[C@H]1C(=O)N[C@@H](CCC(=O)O)C(N)=O (Ac-PQTVPMRLRKLPDSFFAPPE-NH2) | 42
13 | CSCC[C@H](NC(=O)[C@@H]1CCCN1C(=O)[C@@H](NC(=O)[C@@H](NC(=O)[C@H](CCC(N)=O)NC(=O)[C@@H]1CCCN1C(C)=O)[C@@H](C)O)C(C)C)C(=O)N[C@@H](CCCNC(=N)N)C(=O)N[C@@H](CC(C)C)C(=O)N[C@@H](CCCNC(=N)N)C(=O)N[C@@H](CCCCN)C(=O)N[C@@H](CC(C)C)C(=O)N1CCC[C@H]1C(=O)N[C@@H](CC(=O)O)C(=O)N[C@@H](CO)C(=O)N[C@@H](Cc1ccccc1)C(=O)N[C@@H](Cc1ccccc1)C(=O)N[C@@H](CCCCN)C(N)=O (Ac-PQTVPMRLRKLPDSFFK-NH2) | 14
14 | CSCC[C@H](NC(=O)[C@@H]1CCCN1C(=O)[C@@H](NC(=O)[C@@H](NC(=O)[C@H](CCC(N)=O)NC(=O)[C@@H]1CCCN1C(C)=O)[C@@H](C)O)C(C)C)C(=O)N[C@@H](CCCNC(=N)N)C(=O)N[C@@H](CC(C)C)C(=O)N[C@@H](CCCNC(=N)N)C(=O)N[C@@H](CCCCN)C(=O)N[C@@H](CC(C)C)C(=O)N1CCC[C@H]1C(=O)N[C@@H](CC(=O)O)C(=O)N[C@@H](CO)C(=O)N[C@@H](Cc1ccccc1)C(=O)N[C@@H](Cc1ccccc1)C(=O)N[C@@H](CCCCN)C(=O)N[C@@H](C)C(=O)N1CCC[C@H]1C(=O)N[C@@H](CCC(=O)O)C(N)=O (Ac-PQTVPMRLRKLPDSFFKAPE-NH2) | 47
15 | CSCC[C@H](NC(=O)[C@@H]1CCCN1C(=O)[C@@H](NC(=O)[C@@H](NC(=O)[C@H](CCC(N)=O)NC(=O)[C@@H]1CCCN1C(C)=O)[C@@H](C)O)C(C)C)C(=O)N[C@@H](CCCNC(=N)N)C(=O)N[C@@H](CC(C)C)C(=O)N[C@@H](CCCNC(=N)N)C(=O)N[C@@H](CCCCN)C(=O)N[C@@H](CC(C)C)C(=O)N1CCC[C@H]1C(=O)N[C@@H](CC(=O)O)C(=O)N[C@@H](CO)C(=O)N[C@@H](Cc1ccccc1)C(=O)N[C@@H](Cc1ccccc1)C(=O)N[C@@H](CCCCN)C(=O)N1CCC[C@H]1C(N)=O (Ac-PQTVPMRLRKLPDSFFKP-NH2) | 42
16 | CSCC[C@H](NC(=O)[C@@H]1CCCN1C(=O)[C@@H](NC(=O)[C@@H](NC(=O)[C@H](CCC(N)=O)NC(=O)[C@@H]1CCCN1C(C)=O)[C@@H](C)O)C(C)C)C(=O)N[C@@H](CCCNC(=N)N)C(=O)N[C@@H](CC(C)C)C(=O)N[C@@H](CCCNC(=N)N)C(=O)N[C@@H](CCCCN)C(=O)N[C@@H](CC(C)C)C(=O)N1CCC[C@H]1C(=O)N[C@@H](CC(=O)O)C(=O)N[C@@H](CO)C(=O)N[C@@H](Cc1ccccc1)C(=O)N[C@@H](Cc1ccccc1)C(=O)N[C@@H](CCCCN)C(=O)N1CCC[C@H]1C(=O)N1CCC[C@H]1C(N)=O (Ac-PQTVPMRLRKLPDSFFKPP-NH2) | 52

Results, then the molecule that gave them:

Row | inhibition [%] | SMILES
17 | 9.4 | CSCC[C@H](NC(=O)[C@@H]1CCCN1C(=O)[C@@H](NC(=O)[C@@H](NC(=O)[C@H](CCC(N)=O)NC(=O)[C@@H]1CCCN1C(C)=O)[C@@H](C)O)C(C)C)C(=O)N[C@@H](CCCNC(=N)N)C(=O)N[C@@H](CC(C)C)C(=O)N[C@@H](CCCNC(=N)N)C(=O)N[C@@H](CCCCN)C(=O)N[C@@H](CC(C)C)C(=O)N1CCC[C@H]1C(=O)N[C@@H](CC(=O)O)C(=O)N[C@@H](CO)C(=O)N[C@@H](Cc1ccccc1)C(=O)N[C@@H](C)C(=O)N[C@@H](CCCCN)C(=O)N1CCC[C@H]1C(=O)N1CCC[C@H]1C(=O)N[C@@H](CCC(=O)O)C(N)=O (Ac-PQTVPMRLRKLPDSFAKPPE-NH2)
18 | 12 | CC(=O)N[C@@H](CCCNC(=N)N)C(=O)N[C@@H](CC(C)C)C(=O)N[C@@H](CCCNC(=N)N)C(=O)N[C@@H](CCCCN)C(=O)N[C@@H](CC(C)C)C(=O)N1CCC[C@H]1C(=O)N[C@@H](CC(=O)O)C(=O)N[C@@H](CO)C(=O)N[C@@H](Cc1ccccc1)C(=O)N[C@@H](Cc1ccccc1)C(=O)N[C@@H](CCCCN)C(=O)N1CCC[C@H]1C(=O)N1CCC[C@H]1C(=O)N[C@@H](CCC(=O)O)C(N)=O (Ac-RLRKLPDSFFKPPE-NH2)
